Source: patent US20250171438A1 (Agios Pharmaceuticals, Inc., priority 2022, published 2025)

The molecules below were run against T1, human PAH with the R408W mutation (Homo sapiens, UniProt P00439, R408W) (assay: Cell Based Phenylalanine Flux Assay). Settings: A375 cells expressing human R408W PAH; 24 hrs compound incubation; 13C-Tyrosine by LC-MS; average where tested multiple times; read-out: AC50.
T1 construct: expressed in transfected cells
T1 sequence (P00439 1-452 R408W): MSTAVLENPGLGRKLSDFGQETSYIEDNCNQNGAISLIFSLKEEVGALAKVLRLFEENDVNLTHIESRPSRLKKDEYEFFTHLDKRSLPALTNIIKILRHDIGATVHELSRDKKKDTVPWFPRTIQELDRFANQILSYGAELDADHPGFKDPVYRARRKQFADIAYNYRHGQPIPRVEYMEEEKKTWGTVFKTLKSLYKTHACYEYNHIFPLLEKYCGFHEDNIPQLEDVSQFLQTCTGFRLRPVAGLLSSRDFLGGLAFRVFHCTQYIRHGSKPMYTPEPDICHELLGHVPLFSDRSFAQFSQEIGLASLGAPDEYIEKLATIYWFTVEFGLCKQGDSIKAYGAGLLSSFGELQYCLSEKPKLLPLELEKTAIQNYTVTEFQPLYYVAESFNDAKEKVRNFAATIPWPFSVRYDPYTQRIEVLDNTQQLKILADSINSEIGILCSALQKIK
`COCc1ccc2c(C(=O)N3CCc4[nH]cnc4[C@H]3c3nc4ccccc4s3)cnn2c1` [Example 1309] gave an AC50 of 500 to 1000 nM.
With `O=C(c1nnc(-c2ccc(F)cc2F)o1)N1CCc2[nH]cnc2[C@H]1c1nc2c(F)cccc2s1` [Example 1876, (S)-(5-(2,4-difluorophenyl)-1,3,4-oxadiazol-2-yl)(4-(4-fluorobenzo[d]thiazol-2-yl)-6,7-dihydro-1H-imidazo[4,5-c]pyridin-5(4H)-yl)methanone] the AC50 was < 500 nM.
For `O=C(c1oc(CCC2CC2)nc1C(F)(F)F)N1CCc2[nH]cnc2[C@@H]1c1nc2c(F)cccc2s1` [Example 1626, (R)-(2-(2-cyclopropylethyl)-4-(trifluoromethyl)oxazol-5-yl)(4-(4-fluorobenzo[d]thiazol-2-yl)-6,7-dihydro-1H-imidazo[4,5-c]pyridin-5(4H)-yl)methanone], the AC50 was < 500 nM.
For `O=C(CCc1nccs1)N1CCc2[nH]cnc2[C@H]1c1nc2cccc(F)c2s1` [Example 1035, (S)-1-(4-(7-fluorobenzo[d]thiazol-2-yl)-6,7-dihydro-1H-imidazo[4,5-c]pyridin-5(4H)-yl)-3-(thiazol-2-yl)propan-1-one], the AC50 was 500 to 1000 nM.
For `Cc1cc(F)ccc1-c1nnc(C(=O)N2CCc3[nH]cnc3[C@@H]2c2nc3ccccc3s2)o1` [Example 1784, (R)-(4-(benzo[d]thiazol-2-yl)-6,7-dihydro-1H-imidazo[4,5-c]pyridin-5(4H)-yl)(5-(4-fluoro-2-methylphenyl)-1,3,4-oxadiazol-2-yl)methanone], the AC50 was > 5000 nM.
Work on `O=C(CCc1nccs1)N1CCc2[nH]cnc2[C@H]1c1nc2c(F)cccc2s1` [Example 1077, (S)-1-(4-(4-fluorobenzo[d]thiazol-2-yl)-6,7-dihydro-1H-imidazo[4,5-c]pyridin-5(4H)-yl)-3-(thiazol-2-yl)propan-1-one] yielded an AC50 of 1000 to 5000 nM.
In the case of `O=C(CCc1ncc(Cl)s1)N1CCc2[nH]cnc2[C@H]1c1nc2ccccc2[nH]1` [Example 996, (S)-1-(4-(1H-benzo[d]imidazol-2-yl)-1,4,6,7-tetrahydro-5H-imidazo[4,5-c]pyridin-5-yl)-3-(5-chlorothiazol-2-yl)propan-1-one], the AC50 is reported as 1000 to 5000 nM.
`O=C(c1cnn2ccccc12)N1CCc2[nH]cnc2[C@H]1c1nc2cccc(Cl)c2[nH]1` [Example 986, (S)-(4-(7-chloro-1H-benzo[d]imidazol-2-yl)-6,7-dihydro-1H-imidazo[4,5-c]pyridin-5(4H)-yl)(pyrazolo[1,5-a]pyridin-3-yl)methanone] showed an AC50 of 500 to 1000 nM.
For `O=C(CCC1CC1)N1CCc2[nH]cnc2[C@H]1c1nc2ccc(F)cc2s1` [Example 1093, (S)-3-cyclopropyl-1-(4-(6-fluorobenzo[d]thiazol-2-yl)-6,7-dihydro-1H-imidazo[4,5-c]pyridin-5(4H)-yl)propan-1-one], the AC50 was 500 to 1000 nM.
For `[2H]c1nc2c([nH]1)CCN(C(=O)c1cnco1)[C@@H]2c1nc2c(F)cccc2s1` [Example 2161, [(4S)-2-deuterio-4-(4-fluoro-1,3-benzothiazol-2-yl)-1,4,6,7-tetrahydroimidazo[4,5-c]pyridin-5-yl]-oxazol-5-yl-methanone], the AC50 was 500 to 1000 nM.
`CC(C)(C#N)c1nc(C(F)F)c(C(=O)N2CCc3[nH]cnc3[C@@H]2c2nc3c(F)cccc3s2)o1` [Example 2028, (R)-2-(4-(difluoromethyl)-5-(4-(4-fluorobenzo[d]thiazol-2-yl)-4,5,6,7-tetrahydro-1H-imidazo[4,5-c]pyridine-5-carbonyl)oxazol-2-yl)-2-methylpropanenitrile] was tested, and the AC50 was < 500 nM.
With `CCn1cnnc1C(=O)N1CCc2[nH]cnc2[C@H]1c1nc2ccccc2s1` [Example 2078] the AC50 was < 500 nM.
For `CC(C)n1ncc(C(=O)N2CCc3[nH]cnc3[C@@H]2c2nc3c(F)cccc3s2)c1C(F)F` [Example 2002, (R)-(5-(difluoromethyl)-1-isopropyl-1H-pyrazol-4-yl)(4-(4-fluorobenzo[d]thiazol-2-yl)-6,7-dihydro-1H-imidazo[4,5-c]pyridin-5(4H)-yl)methanone], the AC50 was 1000 to 5000 nM.
Work on `Cc1cccc2sc([C@@H]3c4nc[nH]c4CCN3C(=O)c3cnn(C)c3C(F)F)nc12` [Example 2029, (S)-(5-(difluoromethyl)-1-methyl-1H-pyrazol-4-yl)(4-(4-methylbenzo[d]thiazol-2-yl)-6,7-dihydro-1H-imidazo[4,5-c]pyridin-5(4H)-yl)methanone] yielded an AC50 of 500 to 1000 nM.
With `CC(C)(F)c1ncc(C(=O)N2CCc3[nH]cnc3[C@@H]2c2nc3ccccc3s2)o1` [Example 1456, (R)-(4-(benzo[d]thiazol-2-yl)-6,7-dihydro-1H-imidazo[4,5-c]pyridin-5(4H)-yl)(2-(2-fluoropropan-2-yl)oxazol-5-yl)methanone] the AC50 was 1000 to 5000 nM.
Molecule `Cc1ccc2sc([C@@H]3c4nc[nH]c4CCN3C(=O)c3cncs3)nc2c1` [Example 1293, (S)-(4-(5-methylbenzo[d]thiazol-2-yl)-6,7-dihydro-1H-imidazo[4,5-c]pyridin-5(4H)-yl)(thiazol-5-yl)methanone] has an AC50 of 500 to 1000 nM.
`O=C(CC1CCC1)N1CCc2[nH]cnc2[C@@H]1c1nc2ccccc2s1` [Example 1308, (R)-1-(4-(benzo[d]thiazol-2-yl)-6,7-dihydro-1H-imidazo[4,5-c]pyridin-5(4H)-yl)-2-cyclobutylethanone] was tested, and the AC50 was 1000 to 5000 nM.
With `O=C(CC1CC1)N1CCc2[nH]cnc2[C@H]1c1nc2ccccc2s1` [Example 1071] the AC50 was < 500 nM.
Work on `O=C(c1ccon1)N1CCc2[nH]cnc2[C@@H]1c1nc2ccc(Cl)cc2[nH]1` [Example 970, (R)-(4-(6-chloro-1H-benzo[d]imidazol-2-yl)-6,7-dihydro-1H-imidazo[4,5-c]pyridin-5(4H)-yl)(isoxazol-3-yl)methanone] yielded an AC50 of 1000 to 5000 nM.
`O=C(c1ocnc1-c1ccccn1)N1CCc2[nH]cnc2[C@H]1c1nc2c(F)cccc2s1` [Example 1523, (S)-(4-(4-fluorobenzo[d]thiazol-2-yl)-6,7-dihydro-1H-imidazo[4,5-c]pyridin-5(4H)-yl)(4-(pyridin-2-yl)oxazol-5-yl)methanone] was tested, and the AC50 was 500 to 1000 nM.
In the case of `O=C(c1oc(CCN2CC(F)C2)nc1C(F)(F)F)N1CCc2[nH]cnc2[C@@H]1c1nc2c(F)cccc2s1` [Example 1666, (R)-(2-(2-(3-fluoroazetidin-1-yl)ethyl)-4-(trifluoromethyl)oxazol-5-yl)(4-(4-fluorobenzo[d]thiazol-2-yl)-6,7-dihydro-1H-imidazo[4,5-c]pyridin-5(4H)-yl)methanone], the AC50 is reported as < 500 nM.
`CN1CCN(c2nc(C(F)F)c(C(=O)N3CCc4[nH]cnc4[C@@H]3c3nc4c(F)cccc4s3)o2)CC1` [Example 2024, (R)-(4-(difluoromethyl)-2-(4-methylpiperazin-1-yl)oxazol-5-yl)(4-(4-fluorobenzo[d]thiazol-2-yl)-6,7-dihydro-1H-imidazo[4,5-c]pyridin-5(4H)-yl)methanone] showed an AC50 of 1000 to 5000 nM.
Work on `O=C(c1cnn2ccccc12)N1CCc2[nH]cnc2[C@@H]1c1nc2ccc(Cl)cc2[nH]1` [Example 937, (R)-(4-(6-chloro-1H-benzo[d]imidazol-2-yl)-6,7-dihydro-1H-imidazo[4,5-c]pyridin-5(4H)-yl)(pyrazolo[1,5-a]pyridin-3-yl)methanone] yielded an AC50 of 1000 to 5000 nM.
For `CC(C)(O)c1nc(Cl)c(C(=O)N2CCc3[nH]cnc3[C@@H]2c2nc3c(F)cccc3s2)s1` [Example 2088, (R)-(4-chloro-2-(2-hydroxypropan-2-yl)thiazol-5-yl)(4-(4-fluorobenzo[d]thiazol-2-yl)-6,7-dihydro-1H-imidazo[4,5-c]pyridin-5(4H)-yl)methanone], the AC50 was 1000 to 5000 nM.
With `CC(C)(O)c1c(Br)ccc2c(C(=O)N3CCc4[nH]cnc4[C@H]3c3nc4ccccc4s3)cnn12` [Example 1475] the AC50 was < 500 nM.
`Cc1nc(C(C)(C)N(C)C)oc1C(=O)N1CCc2[nH]cnc2[C@@H]1c1nc2c(F)cccc2s1` [Example 2050, (R)-(2-(2-(dimethylamino)propan-2-yl)-4-methyloxazol-5-yl)(4-(4-fluorobenzo[d]thiazol-2-yl)-6,7-dihydro-1H-imidazo[4,5-c]pyridin-5(4H)-yl)methanone] gave an AC50 of 1000 to 5000 nM.
With `O=C(c1cnn2cc(-c3ccccc3)ccc12)N1CCc2[nH]cnc2[C@H]1c1nc2ccccc2s1` [Example 1209] the AC50 was 1000 to 5000 nM.

Same assay, conditions: A375 cells expressing human R408W PAH; 24 hrs with compound; 13C-Tyrosine by LC-MS; average where tested multiple times; read-out: AC50
Molecule `O=C(c1cnn2cc(CO)ccc12)N1CCc2[nH]cnc2C1c1nc2ccccc2s1` (centres unmarked) has an AC50 of 1000 to 5000 nM.
For `Cc1ncoc1CC(=O)N1CCc2[nH]cnc2[C@H]1c1nc2ccccc2[nH]1` [(S)-1-(4-(1H-benzo[d]imidazol-2-yl)-6,7-dihydro-1H-imidazo[4,5-c]pyridin-5(4H)-yl)-2-(4-methyloxazol-5-yl)ethanone], the AC50 was 1000 to 5000 nM.
Work on `O=C(Cc1ccc(F)cc1)N1CCc2[nH]cnc2[C@H]1c1nc2ccccc2[nH]1` [(S)-1-(4-(1H-benzo[d]imidazol-2-yl)-1,4,6,7-tetrahydro-5H-imidazo[4,5-c]pyridin-5-yl)-2-(4-fluorophenyl)ethan-1-one] yielded an AC50 of 1000 to 5000 nM.
In the case of `O=C(Cc1nc(C(F)(F)F)cs1)N1CCc2[nH]cnc2C1c1nc2c(F)cccc2s1` (centres unmarked), the AC50 is reported as 1000 to 5000 nM.
`CC(C)(O)c1cc(C(=O)N2CCc3[nH]cnc3C2c2nc3c(F)cccc3s2)ns1` (centres unmarked) showed an AC50 of 1000 to 5000 nM.
`Cn1ncc(C(=O)N2CCc3[nH]cnc3C2c2nc3c(F)cccc3s2)c1C#N` (centres unmarked) was tested, and the AC50 was > 5000 nM.
Work on `O=C(c1cnco1)N1CCCc2[nH]cnc2C1c1nc2ccccc2s1` (centres unmarked) yielded an AC50 of 1000 to 5000 nM.
With `O=C(c1nc2ccc(F)cc2s1)N1CCc2[nH]cnc2C1c1nc2ccccc2s1` (centres unmarked) the AC50 was 1000 to 5000 nM.
